Laboratory results from patent US20250333405A1, “ANTAGONISTS OF GPR39 PROTEIN” (VASOCARDEA, INC., priority 2024, published 2025).

biological target: T1, human GPR39 receptor (Homo sapiens, UniProt O43194); assay: Intracellular calcium response (FLIPR, Calcium-6) in PC3 cells, antagonism of agonist C3 (TC-G 1008) at EC90; format: cell-based; conditions: functional pKi (-Log10Ki) by modified Cheng-Prusoff from IC50; PC3 cells endogenously expressing human GPR39; 30 μM ZnCl2; agonist C3 (TC-G 1008) at EC90 1.5 μM; read-out: fpKi activity
T1 construct: PC3 Cells, Expressing the Endogenous Human GPR39 Receptor; endogenous in cells; host or cells: PC3 (human prostate adenocarcinoma) cells
T1 sequence (O43194 1-453): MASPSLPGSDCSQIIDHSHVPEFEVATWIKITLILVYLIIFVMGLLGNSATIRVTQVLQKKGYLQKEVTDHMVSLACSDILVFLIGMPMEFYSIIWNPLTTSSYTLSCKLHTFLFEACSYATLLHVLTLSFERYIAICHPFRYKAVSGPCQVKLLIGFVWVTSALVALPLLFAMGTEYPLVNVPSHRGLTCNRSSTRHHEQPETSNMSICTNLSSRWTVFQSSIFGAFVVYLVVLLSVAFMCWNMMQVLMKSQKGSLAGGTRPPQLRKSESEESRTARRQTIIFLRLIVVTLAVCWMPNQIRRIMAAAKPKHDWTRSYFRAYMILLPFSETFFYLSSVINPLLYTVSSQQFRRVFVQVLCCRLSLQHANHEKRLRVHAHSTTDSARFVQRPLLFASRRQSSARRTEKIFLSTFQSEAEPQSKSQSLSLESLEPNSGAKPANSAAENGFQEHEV
Method: Measurement of Intracellular Calcium Response in PC3 Cells, Expressing the Endogenous Human GPR39 Receptor
Human prostate adenocarcinoma (PC3) cells endogenously expressing human GPR39 receptor were seeded into black walls clear-base 384-well plates at a density of 7,500 cells per well in DMEM (Low Glucose) supplemented with 10% heat-inactivated foetal bovine serum and 1% of Pen/Strep and grown overnight at 37° C., 5% CO2. After washing with assay buffer (20 mM HEPES, 137 mM NaCl, 5.4 mM KCl, 10 mM glucose, 0.8 mM MgSO4, 1.3 mM CaCl2), 0.3 mM Na2HPO4, 0.4 mM KH2PO4 4.2 mM NaHCO3, pH 7.4), cells were incubated with Calcium-6 probe (Molecular Devices) at 37° C. for 2 h and then equilibrated at RT for 30 minutes on metal block. The fluorescence was measured in real time by Fluorometric Imaging Plate Reader (FLIPR TETRA, Molecular Devices) (excitation wavelength at 470-495 nm, emission wavelength at 515-575 nm). Compounds of invention were serially diluted in neat DMSO at 1000 fold concentrations and plated into 384-well plates and then 200-fold diluted in assay buffer containing 150 μM ZnCl2 (30 μM final concentration) and 1.1% DMSO (0.32% final concentration). A dual addition FLIPR protocol was used which included a first addition of compounds 200-fold diluted in Assay Buffer containing 150 μM ZnCl2 and 1.1% DMSO and then after 10 minutes a second addition of a submaximal concentration of the hGPR39 receptor agonist, C3 (Tocris, TC-G 1008) at EC90 (concentration producing 90% of the maximal response) value of 1.5 μM. Fluorescence was monitored throughout the run assay. The peak of Ca2+ stimulation (baseline subtracted) was expressed as percentage of the maximal inhibition of the EC90 C3 response and was plotted versus the concentration of test compound. Curve fitting and IC50 estimations are carried out using a four-parameter logistic model using XLfit Software. […] An fpKi less than 5.2 is reported as “+/−”. An fpKi ranging from 5.2 to 5.9 is reported as “+”. An fpKi from 6.0 to 6.5 is reported as “++”. An fpKi from 6.6 to 7.2 is reported as “+++”. An fpKi equal to or greater than 7.3 is reported as “++++”.

For `CCOC1CCN(C(=O)c2ccc(-c3nnc(C)[nH]3)cc2-c2ccn(C(C)C)n2)CC1` [Example 42, (4-ethoxy-1-piperidyl)-[2-(1-isopropylpyrazol-3-yl)-4-(5-methyl-4H-1,2,4-triazol-3-yl)phenyl]methanone], which Ki is on record?
The Ki was no more than 50.1 nM.

`Cc1cccc(C2CN(C)CCN2C(=O)c2ccc(NC(=O)C3CC3)cc2N2CCCC2)c1` (racemic) [Example 111, N-[4-[4-methyl-2-(3-methylphenyl)piperazine-1-carbonyl]-3-pyrrolidin-1-ylphenyl]cyclopropanecarboxamide] was tested. Which Ki did it give?
Its Ki is 63.1 to 251 nM.

With `Cc1nnc(-c2ccc(C(=O)N3CCC(C(F)(F)F)CC3)c(-c3cccc(C4CC4)n3)c2)[nH]1` [Example 71, [2-(6-cyclopropylpyridin-2-yl)-4-(5-methyl-4H-1,2,4-triazol-3-yl)phenyl]-[4-(trifluoromethyl)piperidin-1-yl]methanone] as the molecule, how does the Ki read?
Its Ki is no more than 50.1 nM.

How did the Ki turn out when `O=C(Nc1ccc(C(=O)N2CC3CC(C2)O3)c(N2CCCC2)c1)C1CC1` [Example 8, N-[4-(6-oxa-3-azabicyclo[3.1.1]heptane-3-carbonyl)-3-pyrrolidin-1-ylphenyl]cyclopropanecarboxamide] was run?
The Ki was 1260 to 6310 nM.

For `Cc1nnc(-c2ccc(C(=O)N3CCC4(CC3)CC4)c(-c3ccn(C(C)C)n3)c2)[nH]1` [Example 50, 6-azaspiro[2.5]octan-6-yl-[4-(5-methyl-4H-1,2,4-triazol-3-yl)-2-(1-propan-2-ylpyrazol-3-yl)phenyl]methanone], which Ki is on record?
The Ki was no more than 50.1 nM.

Which Ki does the source give for `Cc1cc(Cl)cc(C2CN(C)CCN2C(=O)c2ccc(NC(=O)C3CC3)cc2N2CCCC2)c1` (racemic) [Example 110, N-[4-[2-(3-chloro-5-methylphenyl)-4-methylpiperazine-1-carbonyl]-3-pyrrolidin-1-ylphenyl]cyclopropanecarboxamide] here?
Its Ki is no more than 50.1 nM.

For `Cc1nnc(-c2ccc(C(=O)N3CCC(C(F)(F)F)CC3)c(-c3ccn(C4CCC4)n3)c2)[nH]1` [Example 47, [2-(1-cyclobutylpyrazol-3-yl)-4-(5-methyl-4H-1,2,4-triazol-3-yl)phenyl]-[4-(trifluoromethyl)piperidin-1-yl]methanone], which Ki is on record?
Its Ki is no more than 50.1 nM.

How did the Ki turn out when `CN1CCN(S(=O)(=O)c2ccc(NC(=O)C3CC3)cc2N2CCCC2)C(c2ccccc2)C1` (centres unmarked) [Example 102, N-[4-(4-methyl-2-phenylpiperazin-1-yl)sulfonyl-3-pyrrolidin-1-ylphenyl]cyclopropanecarboxamide] was run?
The Ki was 1260 to 6310 nM.

With `CC(C)n1ccc(-c2cc(NC(=O)C3CC3)ccc2C(=O)N2CCN(C)CC2c2ccccc2)n1` (racemic) [Example 30, N-[4-(4-methyl-2-phenylpiperazine-1-carbonyl)-3-(1-propan-2-ylpyrazol-3-yl)phenyl]cyclopropanecarboxamide] as the molecule, how does the Ki read?
Its Ki is 316 to 1000 nM.

Which Ki does the source give for `Cc1c(NC(=O)C2CC2)ccc(C(=O)N2CCS(=O)(=O)CC2)c1N1CCCC1` [Example 94, N-[4-(1,1-dioxo-1,4-thiazinane-4-carbonyl)-2-methyl-3-pyrrolidin-1-ylphenyl]cyclopropanecarboxamide] here?
The Ki was 316 to 1000 nM.

For `O=C(Nc1ccc(C(=O)N2CCS(=O)(=O)CC2)c(-c2cccc(C(F)(F)F)n2)c1)C1CC1` [Example 37, N-[4-(1,1-dioxo-1,4-thiazinane-4-carbonyl)-3-[6-(trifluoromethyl)pyridin-2-yl]phenyl]cyclopropanecarboxamide], which Ki is on record?
Its Ki is no more than 50.1 nM.

`O=C(Nc1ccc(C(=O)N2CCC(F)(F)CC2)c(-n2ccc(C(F)(F)F)n2)c1)C1CC1` [Example 119, N-[4-(4,4-difluoropiperidine-1-carbonyl)-3-[3-(trifluoromethyl)pyrazol-1-yl]phenyl]cyclopropanecarboxamide] was tested. Which Ki did it give?
Its Ki is no more than 50.1 nM.

How did the Ki turn out when `CC(C)(C)c1ccn(-c2cc(NC(=O)C3CC3)ccc2C(=O)N2CCS(=O)(=O)CC2)n1` [Example 118, N-[3-(3-tert-butylpyrazol-1-yl)-4-(1,1-dioxo-1,4-thiazinane-4-carbonyl)phenyl]cyclopropanecarboxamide] was run?
Its Ki is no more than 50.1 nM.

For `COC1CCN(C(=O)c2ccc(-c3nnc(C)[nH]3)cc2-c2ccn(C(C)C)n2)CC1` [Example 58, (4-methoxypiperidin-1-yl)-[4-(5-methyl-4H-1,2,4-triazol-3-yl)-2-(1-propan-2-ylpyrazol-3-yl)phenyl]methanone], which Ki is on record?
The Ki was no more than 50.1 nM.

With `Cc1nnc(-c2ccc(C(=O)N3CCN(C)CC3c3ccccc3)c(N3CCC(C(C)C)C3)c2)[nH]1` (single isomer, unassigned) [Example 125d, (4-methyl-2-phenylpiperazin-1-yl)-[4-(5-methyl-4H-1,2,4-triazol-3-yl)-2-(3-propan-2-ylpyrrolidin-1-yl)phenyl]methanone] as the molecule, how does the Ki read?
The Ki was no more than 50.1 nM.

For `O=C(Nc1ccc(-c2nnc(N3CCCC3)o2)c(N2CCCC2)c1)C1CC1` [Example 99, N-[3-pyrrolidin-1-yl-4-(5-pyrrolidin-1-yl-1,3,4-oxadiazol-2-yl)phenyl]cyclopropanecarboxamide], which Ki is on record?
Its Ki is greater than 6310 nM.

`CN1CCN(C(=O)c2ccc(-c3cn[nH]c3)cc2N2CCCC2)C(c2ccccc2)C1` (centres unmarked) [Example 21, (4-methyl-2-phenylpiperazin-1-yl)-[4-(1H-pyrazol-4-yl)-2-pyrrolidin-1-ylphenyl]methanone] was tested. Which Ki did it give?
Its Ki is greater than 6310 nM.

Which Ki does the source give for `Cc1nnc(-c2ccc(C(=O)N3CCC4(CC3)CC4)c(-c3cnn(C(C)C)c3)c2)[nH]1` [Example 49, 6-azaspiro[2.5]octan-6-yl-[4-(5-methyl-4H-1,2,4-triazol-3-yl)-2-(1-propan-2-ylpyrazol-4-yl)phenyl]methanone] here?
The Ki was 316 to 1000 nM.

For `CN1CCN(C(=O)c2cc(F)c(NC(=O)C3CC3)nc2N2CCCC2)C(c2ccccc2)C1` (centres unmarked) [Example 115, N-[3-fluoro-5-(4-methyl-2-phenylpiperazine-1-carbonyl)-6-pyrrolidin-1-ylpyridin-2-yl]cyclopropanecarboxamide], which Ki is on record?
The Ki was 1260 to 6310 nM.

How did the Ki turn out when `Cc1nnc(-c2ccc(C(=O)N3CCC(F)(F)CC3)c(-c3cccc(C(C)(C)C)n3)c2)[nH]1` [Example 79, [2-(6-tert-butyl-2-pyridyl)-4-(5-methyl-4H-1,2,4-triazol-3-yl)phenyl]-(4,4-difluoro-1-piperidyl)methanone] was run?
The Ki was no more than 50.1 nM.

How did the Ki turn out when `Cc1nnc(-c2ccc(C(=O)N3CCC(C)CC3)c(-c3ccn(C(C)(C)C)n3)c2)[nH]1` [Example 64, [2-(1-tert-butylpyrazol-3-yl)-4-(5-methyl-4H-1,2,4-triazol-3-yl)phenyl]-(4-methyl-1-piperidyl)methanone] was run?
Its Ki is no more than 50.1 nM.

`Cc1nnc(-c2ccc(C(=O)N3CCC(F)(F)CC3)c(-c3ccn(C(C)(C)C)n3)c2)[nH]1` [Example 54, [2-(1-tert-butylpyrazol-3-yl)-4-(5-methyl-4H-1,2,4-triazol-3-yl)phenyl]-(4,4-difluoropiperidin-1-yl)methanone] was tested. Which Ki did it give?
Its Ki is no more than 50.1 nM.

Which Ki does the source give for `Cc1nnc(-c2ccc(C(=O)N3CCC(OC(F)(F)F)CC3)c(-c3ccn(C(C)(C)C)n3)c2)[nH]1` [Example 80, [2-(1-tert-butylpyrazol-3-yl)-4-(5-methyl-4H-1,2,4-triazol-3-yl)phenyl]-[4-(trifluoromethoxy)-1-piperidyl]methanone] here?
Its Ki is no more than 50.1 nM.

`O=C(Nc1ccc(C(=O)N2CC3CC(C3)C2)c(N2CCCC2)c1)C1CC1` [Example 9, N-[4-(3-azabicyclo[3.1.1]heptane-3-carbonyl)-3-pyrrolidin-1-ylphenyl]cyclopropanecarboxamide] was tested. Which Ki did it give?
The Ki was 316 to 1000 nM.

With `Cc1nnc(-c2ccc(C(=O)N3CCC(C(F)(F)F)CC3)c(-c3cccc(C(F)(F)F)n3)c2)[nH]1` [Example 73, [4-(5-methyl-4H-1,2,4-triazol-3-yl)-2-[6-(trifluoromethyl)pyridin-2-yl]phenyl]-[4-(trifluoromethyl)piperidin-1-yl]methanone] as the molecule, how does the Ki read?
The Ki was no more than 50.1 nM.

How did the Ki turn out when `Cc1nnc(Nc2ccc(C(=O)N3CCN(C)CC3c3ccccc3)c(N3CCCC3)c2)s1` (centres unmarked) [Example 20, (4-methyl-2-phenylpiperazin-1-yl)-[4-[(5-methyl-1,3,4-thiadiazol-2-yl)amino]-2-pyrrolidin-1-ylphenyl]methanone] was run?
Its Ki is 1260 to 6310 nM.
